“And” between values parts separate entries of the source, which are not always exact repeats. Equal entries are not always repeated. Where two headings read alike, the source gives them in different places.
How the values were obtained:
[1] = test system: common carp (Cyprinus carpio); conditions: cited from earlier work
Danio rerio = conditions: listed as SDZ; cited from earlier work
[2] = Table 1, source not given; cited from earlier work
[3] = test system: sea cucumbers (Apostichopus japonicus); conditions: cited from earlier work
[4] = test system: rainbow trout (Oncorhynchus mykiss); conditions: cited from earlier work
[5] = test system: lambari (Astyanax bimaculatus); conditions: for T1/2, half-life time: t1/2=ln2/Ke
Experimental: The feed used in the experiment was purchased commercially and contained 45% protein (GuabiTech, Campinas, SP, Brazil). The amount of ^14C SDZ (Sigma-Aldrich; Saint Louis, MO, USA, Hen- 5154X Riedel) used in the experiment was the one that gave the lowest reading signal in the liquid scintillation spectrometer. Thus, the amount of feed per fish was the equivalent of 1% of body weight, 12 mg·day^−1, totaling 3528 mg of feed contaminated with 5540.38 Bq of radioactive product. The feed was homogenized after the application of the ^14C SDZ to ensure that all of the drug was evenly distributed in the feed. For confirmation, seven 50 mg samples of contaminated feed were used for the liquid scintillation spectrometer reading.
The bioaccumulation and depletion study using lambari was conducted to evaluate how the elimination of the SDZ molecule works after treatment. The experiment was performed based on the guidelines of the Organization for Economic Cooperation and Development standard no. 305 [17] and VICH-FDA [18], with adaptations for the use of radiolabeled molecules.
The lambari fingerlings were acquired from a commercial fish farm, without distinction between male and female. A total of 100 healthy fish were placed in a tank with 200 L of (chlorine-free) water. The acclimatization took place over 15 days, during which the fish were fed three times daily with commercial fish food. The water temperature was maintained at 25 °C ± 1 °C and pH 7. Feeding of the fry was stopped 24 h before the experiment.
The tests were divided into two stages, seven days of exposure and seven days of depuration. After the acclimatization process, 84 fish (approximately 5 cm long and weighing approximately 1.0 to 1.4 g) were used in the experiment. The experiment was conducted in 8 L stainless steel tanks with three replicates and two controls, with 14 fish placed in each tank. The water temperature was maintained at 25 °C ± 1 °C, pH 7, under permanent aeration, with a 12 h photoperiod. Water temperature and pH were analyzed daily.
The exposure phase of the fish to the antibiotic lasted 7 consecutive days, during which the medicated feed was offered three times a day. Control fish were fed uncontaminated feed. For the depletion phase, the remaining lambaris were transferred to clean tanks with 4 L of water and fed uncontaminated feed three times a day. It is worth noting that one fish was randomly selected and sampled during the exposure (days 1, 2, 3, 4, 5, 6, and 7) and depletion (8, 9, 10, 11, 12, 13, and 14) periods of each tank; the selected lambari was euthanized with a 0.2 mg.mL^−1 benzocaine immersion bath and frozen for later analysis.
Fish samples were burned in the Oxidizer OX500 (RJ—Harvey Instrument Corporation, Buffalo, NY, USA) in an oxygen-rich atmosphere, where 10 mL of scintillation liquid (permafluor) was used per sample. Measurement was by liquid scintillation counting (LSC) with a Tri-Carb 2910 TR LSA counter (Perkin Elmer, Waltham, MA, USA).
On day 7 (the last day of bioaccumulation) and day 14 (the last day of depletion), the aquarium water was filtered through filter paper (Whatman 42) to collect background material (metabolic excrement). The analyses of the excreta were conducted in the same way as the procedures described for fish. In addition, water samples from each aquarium were sampled in triplicate at the exposure phase (beginning and end) to determine the radiolabeled molecule, using liquid scintillation counters (LSC) with a Tri-Carb 2910 TR LSA counter (Perkin Elmer).

In the case of Nc1ccc(S(=O)(=O)Nc2ncccn2)cc1 [Sulfadiazine, 4-Amino-N-(2-pyrimidinyl)benzenesulfonamide], the BCF [1] is given as 2.73 to 165.73 L/kg, the “bioaccumulated amount of SDZ” value (Danio rerio) is given as 4.15 Bq and 5.41 Bq and the “eliminated amount of SDZ” value (Danio rerio) is given as 3.79 Bq and 5.21 Bq. The “Log P” value [2] was −0.09, the BCF [3] was 2.1 to 891.5 L/kg and the BCF [4] was 4100 L/kg. The “concentration of SDZ in the organisms on the seventh day of depletion” value [4] was 1.0 × 10^−4 mg·g ^−1, the “highest accumulation of SDZ in the organisms” value ([4]; day 4, SDZ fed in the diet 0.0330 μg·mg^−1) was 5.10 × 10 ^−4 mg·g^−1 and the “accumulated SDZ eliminated by the organisms” value ([5]; after two days of the depletion phase (7–9 days)) was 93.12%. For the same compound, the “ke, elimination constant” value ([5]; column Bioaccumulation, model fit) was 0.3956 day⁻¹, the “A, pre-exponential term” value ([5]; column Depletion, model fit) was 186.2 ng/g and the “ku, absorption constant” value ([5]; column Depletion, model fit) was 0.6155 mL/g/day. For the same compound, the “T1/2, half-life time” value ([5]; column Depletion, listed as 14C-sulfadiazine) was 27.02 h, the “T1/2, half-life time” value ([5]; column Depletion, listed as SDZ) was 27.1 h and the “maximum (peak) concentration of SDZ in fish” value ([5]; day 7 of exposure, medicated feed 2.5 mg·g^−1 three times a day, listed as SDZ) was 91.7 ng/g and 91.72 ng/g. The “concentration of SDZ in fish after depletion phase” value ([5]; day 13, end of experiment) was 0.83 ng/g, the “accumulated 14C-SDZ eliminated by the fish” value ([5]; depletion phase period (7–13 days)) was 93.12% and the “concentration of SDZ in excreta in the depletion period” value ([5]; depletion, abstract) was 5.96 ng/g. For the same compound, the “concentration of SDZ in fish relative to the MRL” value ([5]; during exposure (bioaccumulation) and elimination (depletion) phases) was less than 100 ng/g, the “concentration of SDZ in excreta (sediment), elimination (depletion) phase” value ([5]; elimination 7–13 days) was 5.9e-06 mg/g and the “concentration of SDZ in the water, depletion phase” value ([5]; elimination 7–13 days) was 0.025 ng/mL. The “concentration of SDZ in excreta after the bioaccumulation period” value ([5]; end of exposure phase, abstract) was 363.5 ng/g, the “concentration of SDZ in excreta (sediment), exposure phase (Bioaccumulation)” value ([5]; exposure 1–7 days) was 0.00036 mg/g and the “concentration of SDZ in the water, end of exposure phase (Bioaccumulation)” value ([5]; exposure 1–7 days) was 4.6 ng/mL. The “bioconcentration factor (BCF)” value ([5]; lambari, BCF=Ca/Cw) was 20 L/kg, the “SDZ applied in the diet bioaccumulated in the fish (mass balance)” value ([5]; mass balance) was 0.21% and the “SDZ applied in the diet remaining in the excreta (mass balance)” value ([5]; mass balance) was 0.69%. For the same compound, the “SDZ applied in the diet remaining in the water (mass balance)” value ([5]; mass balance) was 115%.

From PMC10417336 (Animals : an Open Access Journal from MDPI, 2023)
